Experimental data: article PMC6677754, “In silico design and optimization of selective membranolytic anticancer peptides” (Scientific Reports, 2019)
Peptide text beside a SMILES is read from it.

How the values were obtained:
Assay in all cases: NCI-60 screening
Type in all cases: cell-based, human
SR = SR (Leukemia); log GI50; 48 h, sulforhodamine B, 10^-4 to 10^-8 M
Experimental: (§1) NCI-60 screening procedure
(§2) The NCI-60 screening procedure was performed by the Developmental Therapeutics Program of the National Cancer Institute. The procedure was performed as previously described24 in 96-well microtiter plates. Each peptide was tested in a 5-concentration assay, starting at 10^-4 M and diluting 10-fold to the lowest 10^-8 M concentration. The peptides were incubated for 48 h and the cell concentration was assayed by using the sulforhodamine B assay25 and optical density measurements. The growth inhibition (GI50) value24, measures the growth inhibitory power of the drug agent. The GI50 value is the concentration of the test drug for which the condition in Eq. S1 is met, where T is the optical density of the test well after a 48-h exposure to the peptide, T0 the optical density before applying the peptide drug and C the control optical density of a well where no peptide was applied.

UO-31 = UO-31 (Renal); log GI50; 48 h, sulforhodamine B, 10^-4 to 10^-8 M
Experimental: as §1, §2

SNB-19 = SNB-19 (CNS); log GI50; 48 h, sulforhodamine B, 10^-4 to 10^-8 M
Experimental: as §1, §2

LOX IMVI = LOX IMVI (Melanoma); log GI50; 48 h, sulforhodamine B, 10^-4 to 10^-8 M
Experimental: as §1, §2

OVCAR-5 = OVCAR-5 (Ovarian); log GI50; 48 h, sulforhodamine B, 10^-4 to 10^-8 M
Experimental: as §1, §2

UACC-62 = UACC-62 (Melanoma); log GI50; 48 h, sulforhodamine B, 10^-4 to 10^-8 M
Experimental: as §1, §2

HL-60 = HL-60 (Leukemia); log GI50; 48 h, sulforhodamine B, 10^-4 to 10^-8 M
Experimental: as §1, §2

U251 = U251 (CNS); log GI50; 48 h, sulforhodamine B, 10^-4 to 10^-8 M
Experimental: as §1, §2

DU-145 = DU-145 (Prostate); log GI50; 48 h, sulforhodamine B, 10^-4 to 10^-8 M
Experimental: as §1, §2

NCI-H23 = NCI-H23 (Lung); log GI50; 48 h, sulforhodamine B, 10^-4 to 10^-8 M
Experimental: as §1, §2

786-0 = 786-0 (Renal); log GI50; 48 h, sulforhodamine B, 10^-4 to 10^-8 M
Experimental: as §1, §2

MOLT-4 = MOLT-4 (Leukemia); log GI50; 48 h, sulforhodamine B, 10^-4 to 10^-8 M
Experimental: as §1, §2

RXF-393 = RXF-393 (Renal); log GI50; 48 h, sulforhodamine B, 10^-4 to 10^-8 M
Experimental: as §1, §2

TK-10 = TK-10 (Renal); log GI50; 48 h, sulforhodamine B, 10^-4 to 10^-8 M
Experimental: as §1, §2

SNB-75 = SNB-75 (CNS); log GI50; 48 h, sulforhodamine B, 10^-4 to 10^-8 M
Experimental: as §1, §2

A549/ATCC = A549/ATCC (Lung); log GI50; 48 h, sulforhodamine B, 10^-4 to 10^-8 M
Experimental: as §1, §2

HOP-62 = HOP-62 (Lung); log GI50; 48 h, sulforhodamine B, 10^-4 to 10^-8 M
Experimental: as §1, §2

MCF7 = MCF7 (Breast); log GI50; 48 h, sulforhodamine B, 10^-4 to 10^-8 M
Experimental: as §1, §2

EKVX = EKVX (Lung); log GI50; 48 h, sulforhodamine B, 10^-4 to 10^-8 M
Experimental: as §1, §2

NCI-H226 = NCI-H226 (Lung); log GI50; 48 h, sulforhodamine B, 10^-4 to 10^-8 M
Experimental: as §1, §2

UACC-257 = UACC-257 (Melanoma); log GI50; 48 h, sulforhodamine B, 10^-4 to 10^-8 M
Experimental: as §1, §2

OVCAR-8 = OVCAR-8 (Ovarian); log GI50; 48 h, sulforhodamine B, 10^-4 to 10^-8 M
Experimental: as §1, §2

HCT-116 = HCT-116 (Colon); log GI50; 48 h, sulforhodamine B, 10^-4 to 10^-8 M
Experimental: as §1, §2

MDA-MB-468 = MDA-MB-468 (Breast); log GI50; 48 h, sulforhodamine B, 10^-4 to 10^-8 M
Experimental: as §1, §2

SK-MEL-5 = SK-MEL-5 (Melanoma); log GI50; 48 h, sulforhodamine B, 10^-4 to 10^-8 M
Experimental: as §1, §2

NCI-H522 = NCI-H522 (Lung); log GI50; 48 h, sulforhodamine B, 10^-4 to 10^-8 M
Experimental: as §1, §2

CAKI-1 = CAKI-1 (Renal); log GI50; 48 h, sulforhodamine B, 10^-4 to 10^-8 M
Experimental: as §1, §2

In the case of `CC[C@H](C)[C@H](NC(=O)[C@H](CCCNC(=N)N)NC(=O)[C@H](Cc1c[nH]c2ccccc12)NC(=O)[C@@H](NC(=O)[C@H](CCCCN)NC(=O)[C@H](CCCCN)NC(=O)[C@@H](NC(=O)[C@@H](NC(=O)[C@@H](NC(=O)[C@H](CCCCN)NC(=O)[C@H](Cc1ccccc1)NC(=O)[C@H](CCCCN)NC(=O)[C@H](CCCCN)NC(=O)[C@H](Cc1ccccc1)NC(=O)[C@@H](NC(=O)[C@@H](N)CCCCN)[C@@H](C)CC)[C@@H](C)O)[C@@H](C)CC)[C@@H](C)CC)C(C)C)C(=O)N[C@@H](Cc1ccccc1)C(=O)NCC(=O)N[C@@H](CCCNC(=N)N)C(=O)N[C@@H](Cc1ccccc1)C(N)=O` [AmphiArc2] (H-KIFKKFKTIIKKVWRIFGRF-NH2), the “Log GI (M)” value (SR) is reported as -5.57 M, the “Log GI (M)” value (UO-31) is reported as -5.74 M and the “Log GI (M)” value (SNB-19) is reported as -5.58 M. The “Log GI (M)” value (LOX IMVI) was -5.53 M, the “Log GI (M)” value (OVCAR-5) was -5.68 M and the “Log GI (M)” value (UACC-62) was -5.69 M. The “Log GI (M)” value (HL-60) was -5.28 M, the “Log GI (M)” value (U251) was -5.52 M and the “Log GI (M)” value (DU-145) was -5.77 M. The “Log GI (M)” value (NCI-H23) was -5.61 M, the “Log GI (M)” value (786-0) was -5.53 M and the “Log GI (M)” value (MOLT-4) was -5.51 M. For the same molecule, the “Log GI (M)” value (RXF-393) was -5.68 M, the “Log GI (M)” value (TK-10) was -5.65 M and the “Log GI (M)” value (SNB-75) was -5.60 M. For the same molecule, the “Log GI (M)” value (A549/ATCC) was -5.60 M, the “Log GI (M)” value (HOP-62) was -5.62 M and the “Log GI (M)” value (MCF7) was -5.52 M. The “Log GI (M)” value (EKVX) was -5.73 M, the “Log GI (M)” value (NCI-H226) was -5.59 M and the “Log GI (M)” value (UACC-257) was -5.54 M. For the same molecule, the “Log GI (M)” value (OVCAR-8) was -5.48 M, the “Log GI (M)” value (HCT-116) was -5.49 M and the “Log GI (M)” value (MDA-MB-468) was -5.88 M. For the same molecule, the “Log GI (M)” value (SK-MEL-5) was -5.64 M, the “Log GI (M)” value (NCI-H522) was -5.63 M and the “Log GI (M)” value (CAKI-1) was -5.71 M.
`CC[C@H](C)[C@H](NC(=O)[C@H](CCCCN)NC(=O)[C@H](CCCCN)NC(=O)[C@@H](NC(=O)[C@@H](NC(=O)[C@@H](N)Cc1c[nH]cn1)[C@@H](C)CC)[C@@H](C)CC)C(=O)N[C@@H](CCCNC(=N)N)C(=O)N[C@H](C(=O)N[C@@H](Cc1c[nH]c2ccccc12)C(=O)N[C@@H](Cc1ccc(O)cc1)C(=O)N[C@@H](CCCNC(=N)N)C(=O)N[C@@H](CCCCN)C(=O)N[C@@H](C)C(=O)N[C@@H](Cc1c[nH]c2ccccc12)C(=O)N[C@@H](Cc1c[nH]cn1)C(=O)N[C@H](C(=O)N[C@@H](CC(C)C)C(=O)NCC(=O)N[C@@H](CCCCN)C(=O)N[C@H](C(N)=O)C(C)C)C(C)C)[C@@H](C)O` [Off2] (H-HIIKKIRTWYRKAWHVLGKV-NH2) was tested, and the “Log GI (M)” value (SR) was -5.15 M, the “Log GI (M)” value (UO-31) was -4.73 M and the “Log GI (M)” value (SNB-19) was -4.74 M. For the same molecule, the “Log GI (M)” value (LOX IMVI) was -4.66 M, the “Log GI (M)” value (OVCAR-5) was -5.21 M and the “Log GI (M)” value (UACC-62) was -5.69 M. The “Log GI (M)” value (HL-60) was -5.37 M, the “Log GI (M)” value (U251) was -5.14 M and the “Log GI (M)” value (DU-145) was -5.37 M. The “Log GI (M)” value (NCI-H23) was -5.31 M, the “Log GI (M)” value (786-0) was -5.47 M and the “Log GI (M)” value (MOLT-4) was -4.85 M. The “Log GI (M)” value (RXF-393) was -5.37 M, the “Log GI (M)” value (TK-10) was -5.49 M and the “Log GI (M)” value (SNB-75) was -4.92 M. For the same molecule, the “Log GI (M)” value (A549/ATCC) was -5.26 M, the “Log GI (M)” value (HOP-62) was -5.34 M and the “Log GI (M)” value (MCF7) was -5.69 M. The “Log GI (M)” value (EKVX) was -5.63 M, the “Log GI (M)” value (NCI-H226) was -5.38 M and the “Log GI (M)” value (UACC-257) was -5.07 M. For the same molecule, the “Log GI (M)” value (OVCAR-8) was -5.32 M, the “Log GI (M)” value (HCT-116) was -4.76 M and the “Log GI (M)” value (MDA-MB-468) was -5.19 M. The “Log GI (M)” value (SK-MEL-5) was -5.40 M, the “Log GI (M)” value (NCI-H522) was -4.96 M and the “Log GI (M)” value (CAKI-1) was -5.48 M.
